ChEMBL document CHEMBL4308866, “Rotenoisin A is a novel anti-adipogenic compound” (Bioorg Med Chem Lett, 2019)
The source made the active and inactive calls. The calls are words filed in the database; no cut-off is given here.

Legend:
[1] = molecular target: T1, 5'-AMP-activated protein kinase (Mus musculus) (UniProt Q5EG47+Q8BRK8+Q6PAM0+O54950+Q91WG5+Q9R078+Q8BGM7); assay: Activation of AMPK in mouse 3T3L1 adipocytes in DMI differentiation media assessed as decrease in PPARgamma mRNA expression after 4 days by RP-PCR analysis; format: cell-based; settings: 3T3-L1
[2] = molecular target: T1, 5'-AMP-activated protein kinase (Mus musculus); assay: Activation of AMPK in mouse 3T3L1 adipocytes in DMI differentiation media assessed as decrease in C/EBPalpha expression at 1.5 ug/ml after 6 days in presence of AMPK inhibitor compound C by Western blot analysis; format: cell-based; settings: 3T3-L1
[3] = system: 3T3-L1; assay: Anti-adipogenic activity in mouse 3T3L1 preadipocytes assessed as inhibition of insulin/dexamethasone/isobutylmethylxanthine induced-lipid accumulation treated every 2 days following compound washout for 8 days by Oil-red O staining based assay; format: functional, cell-based
[4] = system: 3T3-L1; assay: Induction of morphological changes in mouse 3T3L1 cells; format: cell-based
[5] = molecular target: T1, 5'-AMP-activated protein kinase (Mus musculus); assay: Activation of AMPK in mouse 3T3L1 adipocytes in DMI differentiation media assessed as decrease in PPARgamma expression after 4 to 8 days by Western blot analysis; format: cell-based; settings: 3T3-L1
[6] = molecular target: T1, 5'-AMP-activated protein kinase (Mus musculus); assay: Activation of AMPK in mouse 3T3L1 adipocytes in DMI differentiation media assessed as decrease in C/EBPbeta expression at 1.5 ug/ml after 24 hrs in presence of AMPK inhibitor compound C by Western blot analysis; format: cell-based; settings: 3T3-L1
[7] = molecular target: T1, 5'-AMP-activated protein kinase (Mus musculus); assay: Activation of AMPK in mouse 3T3L1 adipocytes in DMI differentiation media assessed as decrease in LPL expression after 4 to 8 days by Western blot analysis; format: cell-based; settings: 3T3-L1
[8] = system: 3T3-L1; assay: Anti-adipogenic activity in mouse 3T3L1 adipocytes assessed as inhibition of insulin/dexamethasone/isobutylmethylxanthine induced-triglyceride accumulation at 0.4 ug/ml treated every 2 days following compound washout for 8 days by ELISA relative to control; format: functional
[9] = molecular target: T1, 5'-AMP-activated protein kinase (Mus musculus); assay: Activation of AMPK in mouse 3T3L1 adipocytes in DMI differentiation media assessed as decrease in C/EBPalpha expression after 4 to 8 days by Western blot analysis; format: cell-based; settings: 3T3-L1
[10] = system: 3T3-L1; assay: Effect on total AMPK expression in mouse 3T3L1 adipocytes in DMI differentiation media at 0.4 to 1.5 ug/ml after 4 to 8 days by Western blot analysis; format: ADME, cell-based
[11] = molecular target: T1, 5'-AMP-activated protein kinase (Mus musculus); assay: Activation of AMPK in mouse 3T3L1 adipocytes in DMI differentiation media assessed as increase in ACC phosphorylation after 4 to 8 days by Western blot analysis; format: cell-based; settings: 3T3-L1
[12] = system: 3T3-L1; assay: Anti-adipogenic activity in mouse 3T3L1 adipocytes assessed as inhibition of insulin/dexamethasone/isobutylmethylxanthine induced-triglyceride accumulation at 1.5 ug/ml treated every 2 days following compound washout for 8 days by ELISA relative to control; format: functional
[13] = molecular target: T1, 5'-AMP-activated protein kinase (Mus musculus); assay: Activation of AMPK in mouse 3T3L1 adipocytes in DMI differentiation media assessed as decrease in aP2 expression after 4 to 8 days by Western blot analysis; format: cell-based; settings: 3T3-L1
[14] = system: 3T3-L1; assay: Anti-adipogenic activity in mouse 3T3L1 preadipocytes assessed as inhibition of insulin/dexamethasone/isobutylmethylxanthine induced-cell differentiation treated every 2 days following compound washout for 8 days by Oil-red O staining based assay; format: functional
[15] = molecular target: T1, 5'-AMP-activated protein kinase (Mus musculus); assay: Activation of AMPK in mouse 3T3L1 adipocytes in DMI differentiation media at 0.4 to 1.5 ug/ml after 8 days by Western blot analysis; format: cell-based; settings: 3T3-L1
[16] = molecular target: T1, 5'-AMP-activated protein kinase (Mus musculus); assay: Activation of AMPK in mouse 3T3L1 adipocytes in DMI differentiation media assessed as decrease in C/EBPbeta expression after 4 to 8 days by Western blot analysis; format: cell-based; settings: 3T3-L1
[17] = molecular target: T1, 5'-AMP-activated protein kinase (Mus musculus); assay: Activation of AMPK phosphorylation at […] residue in mouse 3T3L1 adipocytes in DMI differentiation media in presence of AMPK inhibitor compound C by Western blot analysis; format: cell-based; settings: 3T3-L1
[18] = molecular target: T1, 5'-AMP-activated protein kinase (Mus musculus); assay: Activation of AMPK in mouse 3T3L1 adipocytes in DMI differentiation media assessed as decrease in C/EBPalpha mRNA expression after 4 days by RP-PCR analysis; format: cell-based; settings: 3T3-L1
[19] = molecular target: AMP-activated protein kinase, AMPK (Homo sapiens) (UniProt P54646+O43741+P54619+Q9UGJ0+Q9Y478+Q13131+Q9UGI9); assay: Activation of AMPK (unknown origin) at 0.4 to 1.5 ug/ml; format: protein-complex assay
[20] = molecular target: T1, 5'-AMP-activated protein kinase (Mus musculus); assay: Activation of AMPK in mouse 3T3L1 adipocytes in DMI differentiation media assessed as decrease in PPARgamma expression at 1.5 ug/ml after 6 days in presence of AMPK inhibitor compound C by Western blot analysis; format: cell-based; settings: 3T3-L1
[21] = molecular target: T1, 5'-AMP-activated protein kinase (Mus musculus); assay: Activation of AMPK in mouse 3T3L1 adipocytes in DMI differentiation media assessed as decrease in FAS expression after 4 to 8 days by Western blot analysis; format: cell-based; settings: 3T3-L1
[22] = molecular target: T1, 5'-AMP-activated protein kinase (Mus musculus); assay: Activation of AMPK in mouse 3T3L1 adipocytes in DMI differentiation media assessed as decrease in C/EBPbeta mRNA expression after 4 days by RP-PCR analysis; format: cell-based; settings: 3T3-L1
[23] = molecular target: T1, 5'-AMP-activated protein kinase (Mus musculus); assay: Activation of AMPK phosphorylation at […] residue in mouse 3T3L1 adipocytes in DMI differentiation media after 4 to 8 days by Western blot analysis; format: cell-based; settings: 3T3-L1
[24] = molecular target: T1, 5'-AMP-activated protein kinase (Mus musculus); assay: Activation of AMPK in mouse 3T3L1 adipocytes in DMI differentiation media at 1.5 ug/ml after 24 hrs in presence of AMPK inhibitor compound C by Western blot analysis; format: cell-based; settings: 3T3-L1
[25] = molecular target: T1, 5'-AMP-activated protein kinase (Mus musculus); assay: Activation of AMPK in mouse 3T3L1 adipocytes in DMI differentiation media assessed as increase in ACC phosphorylation in presence of AMPK inhibitor compound C by Western blot analysis; format: cell-based; settings: 3T3-L1
[26] = system: 3T3-L1; assay: Cytotoxicity against mouse 3T3L1 cells assessed as effect on cell viability up to 1.5 ug/ml after 4 to 8 days by MTT assay; format: cell-based

Which results are given for `C=C(C)[C@H]1Cc2c(ccc3c2O[C@@H]2COc4cc(OC)c(OC)cc4[C@@H]2[C@@]32CO2)O1` [ROTENOISIN A]?
Activity [1]: Dose-dependent effect; Activity [2]: inactive; inhibition [3]: Dose-dependent effect; Activity [4]: Non-Toxic; Activity [5]: Dose-dependent effect; Activity [6]: inactive; Activity [7]: Dose-dependent effect; inhibition at 0.4 µg/mL [8]: 23%; Activity [9]: Dose-dependent effect; Activity [10]: Non-Toxic; Activity [11]: Dose-dependent effect; inhibition at 1.5 µg/mL [12]: 57%; Activity [13]: Dose-dependent effect; inhibition [14]: Dose-dependent effect; Activity [15]: Active; Activity [16]: Dose-dependent effect; Activity [17]: inactive; Activity [18]: Dose-dependent effect; Activity [19]: inactive; Activity [20]: inactive; Activity [21]: Dose-dependent effect; Activity [22]: Dose-dependent effect; Activity [23]: Dose-dependent effect; Activity [24]: inactive; Activity [25]: inactive; Activity [26]: Non-Toxic
